Measurements as given in US20220370440A1 (Lead Discovery Center GmbH, priority 2018, published 2022).

Key:
A431 = A431 CellTiter-Glo; format: cell-based; conditions: Homo sapiens, A-431; 72 h compound incubation; read-out: A431 CTG IC50
Outline: (§1)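 72 h compound exposure after 24 h attachment, 37° C./5% CO2; CellTiter-Glo ATP luminescence read-out; IC50 by dose-response fit; DMSO vehicle and 10 μM Staurosporine as controls; plates accepted only if Z′ ≥0.5.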

EGFR T790ML858R = EGFR T790ML858R (Homo sapiens, UniProt P00533, L858R/T790M); test: EGFR T790ML858R Lance assay; format: biochemical
Procedure: (§2) Inhibition is indicated as […] [nM] (“−”=not measured). Compounds having an activity designated as “A” provided an IC50≤100 nM; compounds having an activity designated as “B” provided an 100 nM<IC50≤500 nM; compounds having an activity designated as “C” provided an 500 nM<IC50≤1000 nM; compounds having an activity designated as “D” provided an 1000 nM<IC50≤100000 nM; and compounds having an activity designated as “E” provided an IC50>10000 nM.

HER2 INS YVMA = target: T1, HER2 INS YVMA (Homo sapiens, UniProt P04626, INS775YVMA); test: Lance Kinase Activity Assay, HER2 INS YVMA (Her2 Exon 20 INSYVMA Lance); format: biochemical; conditions: biochemical Lance assay
T1 construct: purchased DPF
Outline: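 IC50 was fitted to sigmoidal curves of TR-FRET signal (665 and 615 nm emission after 340 nm excitation) from an Eu anti-phospho antibody binding the phosphorylated ULight peptide. The ATP-started reaction ran 1 h at RT and was then quenched with 10 mM EDTA plus antibody for a further 1 h. Compounds were tested as 8-point, 3-fold dilutions.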

[1] = Metabolic stability in mouse liver microsomes without cofactor NADPH; format: in vitro ADME; conditions: 3 μM test compound, mouse liver microsomes, without NADPH, 50 min, 37° C., LC-MS/MS
Outline: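 Cofactor-free incubation: no NADPH added to mouse liver microsomes, with compound at 3 μM and 37° C. Remaining parent was quantified by LC-MS/MS at time points up to 50 minutes to track depletion.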

[2] = target: EGFR Exon 20 INSNPH Ba/F3 (Homo sapiens, UniProt P00533, DUP771-773, cells depend on it); test: EGFR Exon 20 INSNPH Ba/F3 CellTiter-Glo; format: cell-based; conditions: CellTiter-Glo, 72 h, read-out: EGFR Exon 20 INSNPH Ba/F3 CTG IC50
Outline: (§3)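 Ba/F3 cells dependent on the mutant kinase, seeded and grown 24 h, then treated with compound for 72 h at 37 °C, 5% CO2. Viability by CellTiter-Glo ATP luminescence versus DMSO and 10 μM staurosporine controls; IC50 from dose-response fit, plates accepted at Z′ ≥0.5; bins A ≤100 nM to E >10000 nM.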

H1975 = H1975 CellTiter-Glo; format: cell-based; conditions: Homo sapiens, NCI-H1975; 72 h compound incubation; read-out: H1975 CTG IC50
Outline: as §1

EGFR wt = EGFR wt (Homo sapiens, UniProt P00533); test: EGFR wt Lance assay; format: biochemical
Procedure: as §2

[3] = target: Her2 Exon 20 INSYVMA Ba/F3 (Homo sapiens, UniProt P04626, DUP772-775, cells depend on it); test: Her2 Exon 20 INSYVMA Ba/F3 CellTiter-Glo; format: cell-based; conditions: CellTiter-Glo, 72 h, read-out: Her2 Exon 20 INSYVMA Ba/F3 CTG IC50
Outline: as §3

Chain of EGFR T790ML858R (P00533 25-1210 T790M/L858R): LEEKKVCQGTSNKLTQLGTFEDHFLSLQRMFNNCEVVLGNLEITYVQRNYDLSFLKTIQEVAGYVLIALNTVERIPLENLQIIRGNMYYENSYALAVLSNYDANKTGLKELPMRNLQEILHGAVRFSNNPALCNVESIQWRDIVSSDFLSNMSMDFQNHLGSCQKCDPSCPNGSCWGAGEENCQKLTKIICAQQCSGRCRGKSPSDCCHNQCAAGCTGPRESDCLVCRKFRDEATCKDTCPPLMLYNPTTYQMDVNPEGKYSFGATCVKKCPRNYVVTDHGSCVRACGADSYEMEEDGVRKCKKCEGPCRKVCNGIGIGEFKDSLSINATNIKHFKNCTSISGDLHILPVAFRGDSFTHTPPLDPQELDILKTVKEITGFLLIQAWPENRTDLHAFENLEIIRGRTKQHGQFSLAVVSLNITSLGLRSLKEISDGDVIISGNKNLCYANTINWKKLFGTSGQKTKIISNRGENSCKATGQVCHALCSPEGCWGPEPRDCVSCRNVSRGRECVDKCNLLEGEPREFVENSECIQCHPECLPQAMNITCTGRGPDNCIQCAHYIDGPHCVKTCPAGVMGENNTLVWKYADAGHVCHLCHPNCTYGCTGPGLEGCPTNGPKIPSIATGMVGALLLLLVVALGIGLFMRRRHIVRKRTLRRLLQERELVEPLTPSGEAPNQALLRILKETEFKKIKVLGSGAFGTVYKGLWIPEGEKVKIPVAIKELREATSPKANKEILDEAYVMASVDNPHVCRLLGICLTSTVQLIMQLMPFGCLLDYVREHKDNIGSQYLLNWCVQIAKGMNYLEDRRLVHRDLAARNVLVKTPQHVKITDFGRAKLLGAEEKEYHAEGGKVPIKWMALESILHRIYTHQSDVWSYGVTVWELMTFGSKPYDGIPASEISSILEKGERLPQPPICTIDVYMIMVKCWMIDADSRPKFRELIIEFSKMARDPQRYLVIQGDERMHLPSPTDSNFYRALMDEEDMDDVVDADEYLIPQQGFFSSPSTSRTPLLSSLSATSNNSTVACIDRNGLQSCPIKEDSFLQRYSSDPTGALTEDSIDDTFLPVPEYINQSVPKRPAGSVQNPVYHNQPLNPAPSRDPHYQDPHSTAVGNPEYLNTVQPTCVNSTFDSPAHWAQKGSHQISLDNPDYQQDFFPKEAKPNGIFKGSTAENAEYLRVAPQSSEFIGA
Chain of Her2 Exon 20 INSYVMA Ba/F3 (P04626 with tags, fused parts or gaps DUP772-775): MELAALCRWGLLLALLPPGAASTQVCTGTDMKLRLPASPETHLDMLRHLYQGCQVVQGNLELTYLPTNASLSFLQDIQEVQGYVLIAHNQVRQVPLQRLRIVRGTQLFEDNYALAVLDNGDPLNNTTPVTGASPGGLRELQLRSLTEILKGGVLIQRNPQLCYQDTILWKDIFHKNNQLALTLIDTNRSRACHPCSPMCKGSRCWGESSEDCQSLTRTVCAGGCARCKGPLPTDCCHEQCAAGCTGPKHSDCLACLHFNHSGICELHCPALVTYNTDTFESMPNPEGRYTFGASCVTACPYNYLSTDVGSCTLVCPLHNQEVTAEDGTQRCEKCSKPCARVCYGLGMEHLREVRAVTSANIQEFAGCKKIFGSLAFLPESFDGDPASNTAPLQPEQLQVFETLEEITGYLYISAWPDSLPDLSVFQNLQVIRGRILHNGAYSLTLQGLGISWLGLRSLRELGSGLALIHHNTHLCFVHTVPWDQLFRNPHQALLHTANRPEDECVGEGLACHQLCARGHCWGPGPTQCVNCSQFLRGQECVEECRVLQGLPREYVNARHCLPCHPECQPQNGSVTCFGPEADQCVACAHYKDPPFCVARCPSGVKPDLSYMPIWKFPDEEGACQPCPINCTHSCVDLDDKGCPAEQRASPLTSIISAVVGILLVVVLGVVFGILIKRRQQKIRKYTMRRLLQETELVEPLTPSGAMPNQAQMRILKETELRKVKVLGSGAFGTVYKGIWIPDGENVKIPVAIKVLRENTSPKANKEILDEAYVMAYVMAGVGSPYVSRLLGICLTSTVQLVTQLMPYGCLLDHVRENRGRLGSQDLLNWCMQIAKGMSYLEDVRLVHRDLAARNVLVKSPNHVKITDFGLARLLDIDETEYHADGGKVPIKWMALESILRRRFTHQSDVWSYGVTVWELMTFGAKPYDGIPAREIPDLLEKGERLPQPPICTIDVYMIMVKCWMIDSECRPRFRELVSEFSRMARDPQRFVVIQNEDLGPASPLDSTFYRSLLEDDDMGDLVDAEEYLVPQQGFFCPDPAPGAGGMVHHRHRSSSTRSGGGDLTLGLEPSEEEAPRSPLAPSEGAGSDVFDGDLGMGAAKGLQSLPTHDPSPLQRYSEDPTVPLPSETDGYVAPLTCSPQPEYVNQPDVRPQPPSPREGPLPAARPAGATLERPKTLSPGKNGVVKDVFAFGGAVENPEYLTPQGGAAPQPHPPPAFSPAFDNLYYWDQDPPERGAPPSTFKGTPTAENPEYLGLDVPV
Chain of EGFR wt (P00533 25-1210): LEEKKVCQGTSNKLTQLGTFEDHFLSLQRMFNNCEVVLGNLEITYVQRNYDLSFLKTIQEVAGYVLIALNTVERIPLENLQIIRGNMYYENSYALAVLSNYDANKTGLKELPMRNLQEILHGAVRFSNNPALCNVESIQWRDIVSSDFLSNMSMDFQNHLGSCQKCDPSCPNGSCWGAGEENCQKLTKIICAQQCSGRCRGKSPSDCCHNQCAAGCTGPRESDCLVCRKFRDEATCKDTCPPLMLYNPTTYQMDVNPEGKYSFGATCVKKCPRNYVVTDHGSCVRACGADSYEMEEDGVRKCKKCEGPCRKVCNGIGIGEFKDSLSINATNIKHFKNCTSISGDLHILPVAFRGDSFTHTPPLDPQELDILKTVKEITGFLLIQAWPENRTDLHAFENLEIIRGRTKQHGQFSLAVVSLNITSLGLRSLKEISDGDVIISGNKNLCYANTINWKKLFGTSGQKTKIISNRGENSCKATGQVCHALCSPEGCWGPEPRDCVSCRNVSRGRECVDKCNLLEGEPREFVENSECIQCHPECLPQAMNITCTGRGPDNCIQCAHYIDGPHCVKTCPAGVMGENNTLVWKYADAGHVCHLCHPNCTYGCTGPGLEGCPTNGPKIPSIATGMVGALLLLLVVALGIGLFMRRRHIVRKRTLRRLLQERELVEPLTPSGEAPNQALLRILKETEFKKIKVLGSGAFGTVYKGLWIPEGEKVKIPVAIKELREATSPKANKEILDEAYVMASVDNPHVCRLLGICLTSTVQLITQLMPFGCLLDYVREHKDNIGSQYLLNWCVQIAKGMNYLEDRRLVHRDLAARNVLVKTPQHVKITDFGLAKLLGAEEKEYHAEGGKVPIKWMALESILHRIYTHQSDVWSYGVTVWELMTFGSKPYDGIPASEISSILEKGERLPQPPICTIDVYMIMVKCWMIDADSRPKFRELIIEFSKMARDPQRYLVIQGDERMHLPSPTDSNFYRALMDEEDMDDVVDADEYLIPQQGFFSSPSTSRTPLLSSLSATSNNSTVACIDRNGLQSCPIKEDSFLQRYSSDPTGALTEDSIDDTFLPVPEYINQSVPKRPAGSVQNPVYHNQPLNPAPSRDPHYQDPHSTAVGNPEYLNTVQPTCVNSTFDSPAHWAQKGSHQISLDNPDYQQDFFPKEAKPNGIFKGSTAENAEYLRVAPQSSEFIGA
Chain of EGFR Exon 20 INSNPH Ba/F3 (P00533 with tags, fused parts or gaps DUP771-773): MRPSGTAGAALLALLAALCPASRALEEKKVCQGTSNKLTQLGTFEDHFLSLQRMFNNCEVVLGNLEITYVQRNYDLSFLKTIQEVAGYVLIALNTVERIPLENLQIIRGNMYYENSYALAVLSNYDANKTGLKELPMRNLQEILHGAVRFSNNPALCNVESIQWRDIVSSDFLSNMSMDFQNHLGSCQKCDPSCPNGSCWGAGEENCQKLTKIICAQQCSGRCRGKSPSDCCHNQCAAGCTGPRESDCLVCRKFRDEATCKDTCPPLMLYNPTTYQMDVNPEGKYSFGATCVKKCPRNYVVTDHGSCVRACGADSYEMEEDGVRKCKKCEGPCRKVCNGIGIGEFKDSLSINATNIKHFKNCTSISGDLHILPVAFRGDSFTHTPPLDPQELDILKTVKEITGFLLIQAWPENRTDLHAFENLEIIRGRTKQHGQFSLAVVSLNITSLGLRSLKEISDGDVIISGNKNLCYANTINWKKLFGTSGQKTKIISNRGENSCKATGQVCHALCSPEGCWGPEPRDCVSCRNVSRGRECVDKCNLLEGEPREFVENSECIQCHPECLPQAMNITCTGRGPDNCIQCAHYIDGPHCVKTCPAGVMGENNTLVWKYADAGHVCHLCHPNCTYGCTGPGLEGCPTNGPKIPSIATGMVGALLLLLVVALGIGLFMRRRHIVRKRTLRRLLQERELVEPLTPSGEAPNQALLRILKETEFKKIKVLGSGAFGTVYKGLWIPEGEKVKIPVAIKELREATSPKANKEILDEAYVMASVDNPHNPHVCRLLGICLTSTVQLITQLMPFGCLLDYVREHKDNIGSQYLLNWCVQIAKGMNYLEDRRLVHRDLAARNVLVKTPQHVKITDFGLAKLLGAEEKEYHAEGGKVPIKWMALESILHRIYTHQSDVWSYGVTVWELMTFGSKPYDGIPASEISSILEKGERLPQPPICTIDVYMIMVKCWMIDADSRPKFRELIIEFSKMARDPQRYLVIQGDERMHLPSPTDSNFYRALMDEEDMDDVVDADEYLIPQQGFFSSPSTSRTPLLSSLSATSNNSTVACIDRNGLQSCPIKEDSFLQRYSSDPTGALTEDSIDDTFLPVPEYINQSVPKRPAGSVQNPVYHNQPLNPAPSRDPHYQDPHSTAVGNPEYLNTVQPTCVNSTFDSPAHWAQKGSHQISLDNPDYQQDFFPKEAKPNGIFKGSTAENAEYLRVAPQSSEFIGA

| SMILES | IC50 (A431) [nM] | IC50 (EGFR T790ML858R) [nM] | IC50 (HER2 INS YVMA) [nM] | Stability in presence of mouse liver microsomes without cofactor NADPH [% remaining after 50 min] [1] [% remaining after 50 min] | GI50 [2] [nM] | IC50 (H1975) [nM] | IC50 (EGFR wt) [nM] | GI50 [3] [nM] |
| --- | --- | --- | --- | --- | --- | --- | --- | --- |
| C=CC(=O)Nc1cc(-c2c(-c3ccc(N(C)CCN(C)C)cc3)[nH]c3ncc(C(=O)OC(C)C)cc23)ccc1C [Example 154, isopropyl 3-(3-acrylamido-4-methylphenyl)-2-(4-((2-(dimethylamino)ethyl)(methyl)amino)phenyl)-1H-pyrrolo[2,3-b]pyridine-5-carboxylate 2,2,2-trifluoroacetate] | 1000 to 100000 | ≤ 100 | ≤ 100 | >99 | 100 to 500 | 100 to 500 | ≤ 100 | 100 to 500 |
| C=CC(=O)Nc1cc(-c2c(-c3ccc(OCCN(C)C)cc3)[nH]c3ncc(C(=O)OC(C)C)cc23)ccc1C [Example 159, isopropyl 3-(3-acrylamido-4-methylphenyl)-2-(4-(2-(dimethylamino)ethoxy)phenyl)-1H-pyrrolo[2,3-b]pyridine-5-carboxylate] | 1000 to 100000 | ≤ 100 | ≤ 100 | >99 | 100 to 500 | 100 to 500 | ≤ 100 | 100 to 500 |
| C=CC(=O)N1CCOc2ccc(-c3c(-c4ccc(CN5CCN(C)CC5)cc4)[nH]c4nccc(Cl)c34)cc21 [Example 100, 1-(6-(4-chloro-2-(4-((4-methylpiperazin-1-yl)methyl)phenyl)-1H-pyrrolo[2,3-b]pyridin-3-yl)-2H-benzo[b][1,4]oxazin-4(3H)-yl)prop-2-en-1-one] | 1000 to 100000 | ≤ 100 | ≤ 100 | >99 | 500 to 1000 | 100 to 500 | ≤ 100 | 100 to 500 |
| C=CC(=O)N1CCc2ccc(-c3c(-c4ccc(N5CCN(C)CC5)cc4)[nH]c4nccc(OCC)c34)cc21 [Example 104, 1-(6-(4-ethoxy-2-(4-(4-methylpiperazin-1-yl)phenyl)-1H-pyrrolo[2,3-b]pyridin-3-yl)indolin-1-yl)prop-2-en-1-one 2,2,2-trifluoroacetate] | 500 to 1000 | ≤ 100 | ≤ 100 | 89 | 100 to 500 | ≤ 100 | ≤ 100 | 100 to 500 |
| C=CC(=O)N1CCc2ccc(-c3c(-c4ccnc(N5CCN(C)CC5)c4)[nH]c4nccc(OC)c34)cc21 [Example 111, 1-(6-(4-methoxy-2-(2-(4-methylpiperazin-1-yl)pyridin-4-yl)-1H-pyrrolo[2,3-b]pyridin-3-yl)indolin-1-yl)prop-2-en-1-one] | 100 to 500 | ≤ 100 | ≤ 100 | 90 | ≤ 100 | ≤ 100 | ≤ 100 | ≤ 100 |
| C=CC(=O)N1CCc2ccc(-c3c(-c4ccc(N5CCN(C(C)C)CC5)cc4)[nH]c4nccc(Cl)c34)cc21 [Example 62, 1-(6-(4-chloro-2-(4-(4-isopropylpiperazin-1-yl)phenyl)-1H-pyrrolo[2,3-b]pyridin-3-yl)indolin-1-yl)prop-2-en-1-one] | 500 to 1000 | ≤ 100 | ≤ 100 | >99 | 100 to 500 | ≤ 100 | ≤ 100 | 100 to 500 |
| C=CC(=O)Nc1cc(-c2c(-c3cnc(N4CCN(C)CC4)nc3)[nH]c3nccc(Cl)c23)ccc1C [Example 39, N-(5-(4-chloro-2-(2-(4-methylpiperazin-1-yl)pyrimidin-5-yl)-1H-pyrrolo[2,3-b]pyridin-3-yl)-2-methylphenyl)acrylamide] | 1000 to 100000 | ≤ 100 | 100 to 500 | >99 | 1000 to 10000 | 100 to 500 | ≤ 100 | 500 to 1000 |
| C=CC(=O)N1CCOc2ccc(-c3c(-c4ccc(N5CCN(CC)CC5)cc4)[nH]c4nccc(Cl)c34)cc21 [Example 99, 1-(6-(4-chloro-2-(4-(4-ethylpiperazin-1-yl)phenyl)-1H-pyrrolo[2,3-b]pyridin-3-yl)-2H-benzo[b][1,4]oxazin-4(3H)-yl)prop-2-en-1-one] | 1000 to 100000 | ≤ 100 | ≤ 100 | >99 | 100 to 500 | 100 to 500 | ≤ 100 | 100 to 500 |

Other lines, results leading:

| IC50 (A431) [nM] | IC50 (EGFR T790ML858R) [nM] | IC50 (HER2 INS YVMA) [nM] | Stability in presence of mouse liver microsomes without cofactor NADPH [% remaining after 50 min] [1] [% remaining after 50 min] | GI50 [2] [nM] | IC50 (H1975) [nM] | IC50 (EGFR wt) [nM] | GI50 [3] [nM] | SMILES |
| --- | --- | --- | --- | --- | --- | --- | --- | --- |
| 1000 to 100000 | ≤ 100 | 1000 to 10000 | 80 | 1000 to 10000 | 1000 to 100000 | 100 to 500 | 1000 to 10000 | C=CC(=O)Nc1cc(-c2c(-c3cccc(CN4CCN(C(C)=O)CC4)c3)[nH]c3ncccc23)ccc1C [Example 81, N-(5-(2-(3-((4-acetylpiperazin-1-yl)methyl)phenyl)-1H-pyrrolo[2,3-b]pyridin-3-yl)-2-methylphenyl)acrylamide] |
| 100 to 500 | ≤ 100 | ≤ 100 | >99 | ≤ 100 | ≤ 100 | ≤ 100 | ≤ 100 | C=CC(=O)Nc1cc(-c2c(-c3ccc(N4CCN(CC)CC4)cc3)[nH]c3nccc(Cl)c23)ccc1C [Example 40, N-(5-(4-chloro-2-(4-(4-ethylpiperazin-1-yl)phenyl)-1H-pyrrolo[2,3-b]pyridin-3-yl)-2-methylphenyl)acrylamide] |
| 1000 to 100000 | ≤ 100 | ≤ 100 | >99 | 100 to 500 | 100 to 500 | ≤ 100 | 100 to 500 | C=CC(=O)Nc1cc(-c2c(-c3ccc(OCCN4CCCC4)cc3)[nH]c3ncc(C(=O)OC(C)C)cc23)ccc1C [Example 158, isopropyl 3-(3-acrylamido-4-methylphenyl)-2-(4-(2-(pyrrolidin-1-yl)ethoxy)phenyl)-1H-pyrrolo[2,3-b]pyridine-5-carboxylate] |
| 1000 to 100000 | ≤ 100 | ≤ 100 | >99 | 100 to 500 | 100 to 500 | ≤ 100 | 100 to 500 | C=CC(=O)Nc1cc(-c2c(-c3ccc(N4CCN(C)CC4)c(F)c3)[nH]c3ncc(C(=O)OC(C)C)cc23)ccc1C [Example 164, isopropyl 3-(3-acrylamido-4-methylphenyl)-2-(3-fluoro-4-(4-methylpiperazin-1-yl)phenyl)-1H-pyrrolo[2,3-b]pyridine-5-carboxylate] |
| 1000 to 100000 | ≤ 100 | ≤ 100 | >99 | 100 to 500 | 100 to 500 | ≤ 100 | 100 to 500 | C=CC(=O)Nc1cc(-c2c(-c3cccc(OCCN4CCCC4)c3)[nH]c3ncc(C(=O)OC(C)C)cc23)ccc1C [Example 170, isopropyl 3-(3-acrylamido-4-methylphenyl)-2-(3-(2-(pyrrolidin-1-yl)ethoxy)phenyl)-1H-pyrrolo[2,3-b]pyridine-5-carboxylate] |
